Measurements as given in US20250205344A1, “2,4-DIOXOTETRAHYDROPYRIMIDINYL DERATIVES AS DEGRONS IN PROTACS” (GLAXOSMITHKLINE INTELLECTUAL PROPERTY DEVELOPMENT LIMITED, priority 2022, published 2025).
Structures can show the parent of a compound that is named as a salt.

These molecules were tested against T1, Androgen Receptor (Homo sapiens, UniProt P10275, T878A) (assay: Androgen Receptor Degradation Assay (Nano-Glo HiBiT)). Conditions: LNCaP, 18 h, HiBiT-tagged AR in human LnCaP cells, read-out: mean asymptote max.
T1 construct: the AR gene was modified, using CRISPR/Cas9 editing, so the expressed AR protein included an 11 amino acid HiBiT tag; endogenous in cells; host or cells: clonal LnCaP-derived line, AR gene edited by CRISPR/Cas9
Format: cell-based
Description: Degradation of Androgen Receptor protein in human LnCaP cells treated with PROTACs was quantified using the Nano-Glo® HiBiT Lytic Detection System (Promega) in 384 well assay plate format. A clonal LnCaP derived cell line was first established in which the AR gene was modified, using CRISPR/Cas9 editing, so the expressed AR protein included an 11 amino acid HiBiT tag at its amino-terminus. 10 mM DMSO stock solutions of PROTACs were prepared and diluted across an 11 concentration, 3 fold increment range, and 25 nL dispensed into a white opaque bottomed 384 well assay plate (Thermofisher) using an acoustic ECHO dispenser (Labcyte). […] For the assay, cells were detached from flask and resuspended with assay medium (FluoroBrite™ DMEM supplemented with 10% heat inactivated FBS, penicillin 50 U/mL and streptomycin 50 ug/mL (Thermofisher)). The cell suspension was centrifuged at 400 g for 5 min and the pellet resuspended in assay medium. 25 μL of cell suspension containing 10,000 cells was dispensed into each well of the assay plate containing the test compounds, which was then incubated for 18 h at 37° C./5% CO2. Control wells were included on each assay plate, with assay medium without cells being the no AR remaining 100% effect control, and cells treated with DMSO vehicle only, without PROTAC, the 0% effect control. 25 μL of Nano-Glo® HiBiT lysis buffer supplemented with LgBiT protein and Nano-Glo® substrate (Promega) was added to each well and the plate shaken at 500 rpm for 10 min at room temperature. The intensity of luminescence was measured using a PHERAstar microplate reader (BMG Labtech) and the % AR protein remaining in each well calculated by normalising the raw luminescence value to the above control wells. Parameters corresponding to the potency and efficacy estimates of the PROTACs were obtained from these normalised luminescence values using software (IDBS ActivityBase). These included the DC50 and the Dmax estimates. Two versions of the DC50, called relative DC50 and absolute DC50, were typically generated. These are the inflection point of a fitted 4 parameter sigmoidal response curve and the interpolated concentration of PROTAC corresponding to 50% of the protein being degraded, respectively. The Dmax parameter was the maximum experimentally observed degradation and the asymptote max parameter the fitted response curve asymptote maximum.

T1 sequence (P10275 whole entry T878A): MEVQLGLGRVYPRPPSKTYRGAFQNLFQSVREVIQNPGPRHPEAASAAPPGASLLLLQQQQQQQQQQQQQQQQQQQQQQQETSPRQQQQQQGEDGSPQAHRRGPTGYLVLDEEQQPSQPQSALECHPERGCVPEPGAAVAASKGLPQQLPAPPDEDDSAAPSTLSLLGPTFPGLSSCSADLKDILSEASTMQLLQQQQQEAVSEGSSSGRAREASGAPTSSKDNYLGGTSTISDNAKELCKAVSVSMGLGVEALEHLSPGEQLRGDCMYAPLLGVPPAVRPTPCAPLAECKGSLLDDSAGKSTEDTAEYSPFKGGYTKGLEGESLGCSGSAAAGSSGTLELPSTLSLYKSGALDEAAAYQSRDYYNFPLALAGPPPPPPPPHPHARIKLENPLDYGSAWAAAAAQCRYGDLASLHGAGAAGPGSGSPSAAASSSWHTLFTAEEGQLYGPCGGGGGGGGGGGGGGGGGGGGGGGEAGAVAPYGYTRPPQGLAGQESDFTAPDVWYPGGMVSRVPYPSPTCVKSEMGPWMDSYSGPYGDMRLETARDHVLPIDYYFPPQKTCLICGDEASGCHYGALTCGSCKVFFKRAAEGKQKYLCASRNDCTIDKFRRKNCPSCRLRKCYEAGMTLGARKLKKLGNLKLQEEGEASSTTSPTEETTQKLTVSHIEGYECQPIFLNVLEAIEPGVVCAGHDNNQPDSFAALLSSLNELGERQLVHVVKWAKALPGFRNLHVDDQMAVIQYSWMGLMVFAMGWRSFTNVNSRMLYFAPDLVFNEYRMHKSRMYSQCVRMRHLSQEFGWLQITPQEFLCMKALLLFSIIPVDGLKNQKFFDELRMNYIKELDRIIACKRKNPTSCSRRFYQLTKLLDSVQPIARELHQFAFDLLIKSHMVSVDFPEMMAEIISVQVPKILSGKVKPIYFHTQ
T1 sequence (Q96SW2 whole entry partner): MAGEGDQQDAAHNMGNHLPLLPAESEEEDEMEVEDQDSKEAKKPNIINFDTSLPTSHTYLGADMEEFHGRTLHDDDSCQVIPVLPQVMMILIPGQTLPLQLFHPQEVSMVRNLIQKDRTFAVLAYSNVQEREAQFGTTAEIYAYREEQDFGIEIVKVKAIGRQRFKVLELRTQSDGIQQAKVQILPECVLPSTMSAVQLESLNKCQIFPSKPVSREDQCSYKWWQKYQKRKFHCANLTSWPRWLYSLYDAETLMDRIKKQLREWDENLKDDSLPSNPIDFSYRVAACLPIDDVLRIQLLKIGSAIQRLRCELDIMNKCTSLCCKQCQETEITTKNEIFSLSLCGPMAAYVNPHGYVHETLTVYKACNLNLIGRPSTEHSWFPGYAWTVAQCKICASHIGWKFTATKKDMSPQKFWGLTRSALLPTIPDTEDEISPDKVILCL
T1 sequence (Q16531 whole entry partner): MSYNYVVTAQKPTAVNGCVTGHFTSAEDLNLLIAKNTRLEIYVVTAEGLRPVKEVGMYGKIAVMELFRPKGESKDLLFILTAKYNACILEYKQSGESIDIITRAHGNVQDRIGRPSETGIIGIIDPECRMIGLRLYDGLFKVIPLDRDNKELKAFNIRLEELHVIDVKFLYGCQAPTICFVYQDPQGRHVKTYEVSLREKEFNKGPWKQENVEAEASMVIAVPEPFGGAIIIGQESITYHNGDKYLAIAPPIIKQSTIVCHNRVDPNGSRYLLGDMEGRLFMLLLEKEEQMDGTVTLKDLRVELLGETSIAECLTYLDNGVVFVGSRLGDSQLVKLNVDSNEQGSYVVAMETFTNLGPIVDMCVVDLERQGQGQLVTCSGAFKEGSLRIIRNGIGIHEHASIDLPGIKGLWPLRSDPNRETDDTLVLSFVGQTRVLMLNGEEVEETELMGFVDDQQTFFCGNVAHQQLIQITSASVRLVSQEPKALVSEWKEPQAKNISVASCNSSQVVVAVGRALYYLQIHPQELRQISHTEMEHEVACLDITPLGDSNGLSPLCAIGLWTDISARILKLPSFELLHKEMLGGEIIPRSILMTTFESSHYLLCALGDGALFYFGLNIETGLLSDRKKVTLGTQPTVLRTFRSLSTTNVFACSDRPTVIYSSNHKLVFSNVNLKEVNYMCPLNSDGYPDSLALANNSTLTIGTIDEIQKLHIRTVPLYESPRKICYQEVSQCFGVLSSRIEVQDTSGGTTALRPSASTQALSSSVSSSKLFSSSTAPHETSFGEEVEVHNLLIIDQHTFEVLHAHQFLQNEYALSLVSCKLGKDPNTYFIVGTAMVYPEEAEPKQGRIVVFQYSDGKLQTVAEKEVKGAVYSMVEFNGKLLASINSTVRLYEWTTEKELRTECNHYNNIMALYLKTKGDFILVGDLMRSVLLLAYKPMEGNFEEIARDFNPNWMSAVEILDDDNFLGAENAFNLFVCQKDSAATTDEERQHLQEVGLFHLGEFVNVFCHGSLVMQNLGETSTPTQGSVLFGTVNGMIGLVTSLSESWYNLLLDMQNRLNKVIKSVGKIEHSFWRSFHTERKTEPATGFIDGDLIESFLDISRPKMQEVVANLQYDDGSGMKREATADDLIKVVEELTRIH

Dmax [%] | Compound
≥ 50 | N#Cc1ccc(O[C@H]2CC[C@H](NC(=O)c3ccc(N4CCC(CN5CCC(n6ccc7c(N8CCC(=O)NC8=O)cc(F)cc76)CC5)CC4)nn3)CC2)cc1Cl [EAR31, N-((1r,4r)-4-(3-Chloro-4-cyanophenoxy)cyclohexyl)-6-(4-((4-(4-(2,4-dioxotetrahydropyrimidin-1(2H)-yl)-6-fluoro-1H-indol-1-yl)piperidin-1-yl)methyl)piperidin-1-yl)pyridazine-3-carboxamide hydrochloride]
≥ 50 | N#Cc1ccc(O[C@H]2CC[C@H](NC(=O)c3ccc(N4CCC5(CC4)CC(CN4CCC(n6ncc7c(N8CCC(=O)NC8=O)cccc76)CC4)C5)nn3)CC2)cc1Cl [EAR237, N-((1r,4r)-4-(3-chloro-4-cyanophenoxy)cyclohexyl)-6-(2-((4-(4-(2,4-dioxotetrahydropyrimidin-1(2H)-yl)-1H-indazol-1-yl)piperidin-1-yl)methyl)-7-azaspiro[3.5]nonan-7-yl)pyridazine-3-carboxamide]
≥ 50 | N#Cc1ccc(O[C@H]2CC[C@H](NC(=O)c3ccc(OCCCN4CCC(n5ccc6c(N7CCC(=O)NC7=O)cccc65)CC4)cn3)CC2)cc1Cl [EAR62, N-((1r,4r)-4-(3-Chloro-4-cyanophenoxy)cyclohexyl)-5-(3-(4-(4-(2,4-dioxotetrahydropyrimidin-1(2H)-yl)-1H-indol-1-yl)piperidin-1-yl)propoxy)picolinamide]
≥ 50 | N#Cc1ccc(O[C@H]2CC[C@H](NC(=O)c3cnc(N4CCC(CN5CCC(n6ccc7c(N8CCC(=O)NC8=O)cccc76)CC5)CC4)nc3)CC2)cc1Cl [AR10, N-((1r,4r)-4-(3-Chloro-4-cyanophenoxy)cyclohexyl)-2-(4-((4-(4-(2,4-dioxotetrahydropyrimidin-1(2H)-yl)-1H-indol-1-yl)piperidin-1-yl)methyl)piperidin-1-yl)pyrimidine-5-carboxamide]
≥ 50 | N#Cc1ccc(O[C@H]2CC[C@H](NC(=O)c3ccc(N4CCC(CN5CCC(n6ccc7c(N8CCC(=O)NC8=O)cc(Cl)cc76)CC5)CC4)nn3)CC2)cc1Cl [EAR32, 6-(4-((4-(6-Chloro-4-(2,4-dioxotetrahydropyrimidin-1(2H)-yl)-1H-indol-1-yl)piperidin-1-yl)methyl)piperidin-1-yl)-N-((1r,4r)-4-(3-chloro-4-cyanophenoxy)cyclohexyl)pyridazine-3-carboxamide hydrochloride]
≥ 50 | N#Cc1ccc(O[C@H]2CC[C@H](NC(=O)c3ccc(N4CCC[C@H](CN5CCC(n6ccc7c(N8CCC(=O)NC8=O)cccc76)CC5)C4)nn3)CC2)cc1Cl [EAR142, N-((1r,4R)-4-(3-chloro-4-cyanophenoxy)cyclohexyl)-6-((R)-3-((4-(4-(2,4-dioxotetrahydropyrimidin-1(2H)-yl)-1H-indol-1-yl)piperidin-1-yl)methyl)piperidin-1-yl)pyridazine-3-carboxamide]
≥ 50 | CC1(CN2CCC(n3ncc4c(N5CCC(=O)NC5=O)cccc43)CC2)CCN(c2ccc(C(=O)N[C@H]3CC[C@H](Oc4ccc(C#N)c(Cl)c4)CC3)nn2)CC1 [EAR242, N-((1r,4r)-4-(3-chloro-4-cyanophenoxy)cyclohexyl)-6-(4-((4-(4-(2,4-dioxotetrahydropyrimidin-1(2H)-yl)-1H-indazol-1-yl)piperidin-1-yl)methyl)-4-methylpiperidin-1-yl)pyridazine-3-carboxamide]
≥ 50 | N#Cc1ccc(O[C@H]2CC[C@H](NC(=O)c3ccc(N4CCC(CN5CCC(n6ccc7c(N8CCC(=O)NC8=O)cccc76)CC5)CC4)nc3)CC2)cc1C(F)(F)F [AR12, N-((1r,4r)-4-(4-Cyano-3-(trifluoromethyl)phenoxy)cyclohexyl)-6-(4-((4-(4-(2,4-dioxotetrahydropyrimidin-1(2H)-yl)-1H-indol-1-yl)piperidin-1-yl)methyl)piperidin-1-yl)nicotinamide]

Further lines, the molecule ahead of its results:

Compound | Dmax [%]
CC(C)n1ccc2c(N3CCC(=O)NC3=O)cc(C(=O)N3CCC4(CCCN(CCCCCc5ccc(C(=O)N[C@H]6CC[C@H](Oc7ccc(C#N)c(Cl)c7)CC6)cc5)C4)CC3)cc21 [EAR83, N-((1r,4r)-4-(3-Chloro-4-cyanophenoxy)cyclohexyl)-4-(5-(9-(4-(2,4-dioxotetrahydropyrimidin-1(2H)-yl)-1-isopropyl-1H-indole-6-carbonyl)-2,9-diazaspiro[5.5]undecan-2-yl)pentyl)benzamide] | ≥ 50
C[C@@H]1CN(c2ccc(C#N)c(Cl)c2)[C@@H](C)CN1C(=O)c1ccc(OCCCCCN2CCC(n3ncc4c(N5CCC(=O)NC5=O)cncc43)CC2)nc1 [EAR164, 2-Chloro-4-((2S,5R)-4-(6-((5-(4-(4-(2,4-dioxotetrahydropyrimidin-1(2H)-yl)-1H-pyrazolo[3,4-c]pyridin-1-yl)piperidin-1-yl)pentyl)oxy)nicotinoyl)-2,5-dimethylpiperazin-1-yl)benzonitrile] | ≥ 50
N#Cc1ccc(O[C@H]2CC[C@H](NC(=O)c3ccc(N4CC5CC(CN6CCC(n7ncc8c(N9CCC(=O)NC9=O)cccc87)CC6)(C5)C4)nn3)CC2)cc1Cl [EAR219, N-((1r,4r)-4-(3-chloro-4-cyanophenoxy)cyclohexyl)-6-(1-((4-(4-(2,4-dioxotetrahydropyrimidin-1(2H)-yl)-1H-indazol-1-yl)piperidin-1-yl)methyl)-3-azabicyclo[3.1.1]heptan-3-yl)pyridazine-3-carboxamide] | ≥ 50
CC1(C)[C@H](NC(=O)c2ncc(N3CCC(CN4CCC(n5ncc6c(N7CCC(=O)NC7=O)ccnc65)CC4)CC3)cn2)C(C)(C)[C@H]1Oc1ccc(C#N)c(Cl)c1 [EAR272, N-((1r,3r)-3-(3-Chloro-4-cyanophenoxy)-2,2,4,4-tetramethylcyclobutyl)-5-(4-((4-(4-(2,4-dioxotetrahydropyrimidin-1(2H)-yl)-1H-pyrazolo[3,4-b]pyridin-1-yl)piperidin-1-yl)methyl)piperidin-1-yl)pyrimidine-2-carboxamide] | ≥ 50
N#Cc1ccc(O[C@H]2CC[C@H](NC(=O)c3ccc4c(c3)CCN(C(=O)CN3CCC(n5ccc6c(N7CCC(=O)NC7=O)cccc65)CC3)C4)CC2)cc1Cl [AR5, N-((1r,4r)-4-(3-Chloro-4-cyanophenoxy)cyclohexyl)-2-(2-(4-(4-(2,4-dioxotetrahydropyrimidin-1(2H)-yl)-1H-indol-1-yl)piperidin-1-yl)acetyl)-1,2,3,4-tetrahydroisoquinoline-6-carboxamide] | ≥ 50
N#Cc1ccc(O[C@H]2CC[C@H](NC(=O)c3ccc4c(c3)CN(C(=O)CN3CCC(n5ccc6c(N7CCC(=O)NC7=O)cccc65)CC3)C4)CC2)cc1Cl [AR6, N-((1r,4r)-4-(3-Chloro-4-cyanophenoxy)cyclohexyl)-2-(2-(4-(4-(2,4-dioxotetrahydropyrimidin-1(2H)-yl)-1H-indol-1-yl)piperidin-1-yl)acetyl)isoindoline-5-carboxamide] | ≥ 50
CC1(C)C(=O)N(c2ccc(C#N)c(C(F)(F)F)c2)C(=S)N1c1ccc(N2CCC(CN3CCC(n4ncc5c(N6CCC(=O)NC6=O)cncc54)CC3)CC2)cc1 [EAR98, 4-(3-(4-(4-((4-(4-(2,4-Dioxotetrahydropyrimidin-1(2H)-yl)-1H-pyrazolo[3,4-c]pyridin-1-yl)piperidin-1-yl)methyl)piperidin-1-yl)phenyl)-4,4-dimethyl-5-oxo-2-thioxoimidazolidin-1-yl)-2-(trifluoromethyl)benzonitrile] | ≥ 50
N#Cc1ccc(O[C@H]2CC[C@H](NC(=O)c3ccc(N4CCC(n5ccc6c(N7CCC(=O)NC7=O)cccc65)CC4)cc3)CC2)cc1Cl [EAR54, N-((1r,4r)-4-(3-Chloro-4-cyanophenoxy)cyclohexyl)-4-(4-(4-(2,4-dioxotetrahydropyrimidin-1(2H)-yl)-1H-indol-1-yl)piperidin-1-yl)benzamide] | ≥ 50
CC1(C)[C@H](NC(=O)c2cnc(N3CCC(CN4CCC(n5ccc6c(N7CCC(=O)NC7=O)cccc65)CC4)CC3)nc2)C(C)(C)[C@H]1Oc1ccc(C#N)c(Cl)c1 [EAR11, N-((1r,3r)-3-(3-Chloro-4-cyanophenoxy)-2,2,4,4-tetramethylcyclobutyl)-2-(4-((4-(4-(2,4-dioxotetrahydropyrimidin-1(2H)-yl)-1H-indol-1-yl)piperidin-1-yl)methyl)piperidin-1-yl)pyrimidine-5-carboxamide] | ≥ 50
N#Cc1ccc(O[C@H]2CC[C@H](NC(=O)c3cnc(N4CCC(CN5CCC(n6ccc7c(N8CCC(=O)NC8=O)cncc76)CC5)CC4)nc3)CC2)cc1C(F)(F)F [AR17, N-((1r,4r)-4-(4-Cyano-3-(trifluoromethyl)phenoxy)cyclohexyl)-2-(4-((4-(4-(2,4-dioxotetrahydropyrimidin-1(2H)-yl)-1H-pyrrolo[2,3-c]pyridin-1-yl)piperidin-1-yl)methyl)piperidin-1-yl)pyrimidine-5-carboxamide] | ≥ 50
